# Results as given in US10259779B2 (WAYNE STATE UNIVERSITY, priority 2016, dated 2019).
# Legend:
# [1] = test system: HDAC proteins in HeLa cell lysates; test: Global HDAC inhibition with HeLa cell lysates (HDAC-Glo I/II substrate); type: biochemical; conditions: for Deacetylase activity (%): Hela Lysate
# Description: HDAC activity was measured using the commercially available HDAC-Glo™ I/II substrate (Promega).
# Lysates were prepared according to the reported procedure.^28 HeLa-S3 cells (purchased from Biovest) were lysed in lysis buffer (1×10^9 cells in 10 mL lysis buffer; 50 mM Tris-HCl, pH 8.0, 10% glycerol, 150 mM NaCl, 0.5% Triton X-100, and 1× protease inhibitor cocktail (GenDEPOT)) with rotation at 4° C. for 30 min. Cell debris was removed by centrifugation at 12000 rpm at 4° C. for 30 min. Protein concentration of the supernatant was determined using Bio-Rad protein assay (BioRad, Bradford reagent). Lysates were stored at −80° C.
# To measure global HDAC inhibition, HeLa cell lysates (1 μg total protein) were mixed with HDAC-Glo™ buffer in polystyrene 96-well half area white plate (Corning) to a final volume of 12 μL, followed by addition of inhibitors in DMSO (0.5 μL) and incubation for 15 min at room temperature without rocking. An uninhibited control reaction was also included that contained DMSO (0.5 μL). Finally, deacetylase activity was measured using the HDAC-Glo™ assay kit (Promega) as per the manufacturer's protocol. Specifically, the HDAC-Glo™ substrate (1 mL) and developer ([…]) were first premixed to form the HDAC-Glo™ reagents. Then, to monitor deacetylase activity, HDAC-Glo™ reagent (5 μL) and HDAC-Glo™ buffer (7.5 μL) were added to each well (25 μL total volume) and incubated for 35 min at room temperature without rocking. The deacetylase activity was measured as luminescent signal using a GeniosPlus Fluorimeter (Tecan) at optimal gain. The concentrations of inhibitors reported in the dose-dependent studies (Table 2) are final concentrations after addition of HDAC-Glo™ reagent HDAC-Glo™ buffer.
# HDAC2 = HDAC2 (Homo sapiens, UniProt Q92769); test: ELISA-based HDAC activity assay, HDAC2; conditions: for IC50: read-out: IC50 values (nM) HDAC2
# HDAC3 = HDAC3 (Homo sapiens, UniProt O15379); test: ELISA-based HDAC activity assay, HDAC3; conditions: for IC50: read-out: IC50 values (nM) HDAC3
# HDAC6 = target: T1, HDAC6 (Homo sapiens, UniProt Q9UBN7); test: ELISA-based HDAC activity assay, HDAC6; conditions: for HDAC6 fold selectivity HDAC1: HDAC6 over HDAC1; for HDAC6 fold selectivity HDAC1 / HDAC6 fold selectivity HDAC2 / HDAC6 fold selectivity HDAC3: calculated from IC50 values; for HDAC6 fold selectivity HDAC2: HDAC6 over HDAC2; for HDAC6 fold selectivity HDAC3: HDAC6 over HDAC3; for IC50: read-out: IC50 values (nM) HDAC6
# T1 sequence (Q9UBN7 1-1215): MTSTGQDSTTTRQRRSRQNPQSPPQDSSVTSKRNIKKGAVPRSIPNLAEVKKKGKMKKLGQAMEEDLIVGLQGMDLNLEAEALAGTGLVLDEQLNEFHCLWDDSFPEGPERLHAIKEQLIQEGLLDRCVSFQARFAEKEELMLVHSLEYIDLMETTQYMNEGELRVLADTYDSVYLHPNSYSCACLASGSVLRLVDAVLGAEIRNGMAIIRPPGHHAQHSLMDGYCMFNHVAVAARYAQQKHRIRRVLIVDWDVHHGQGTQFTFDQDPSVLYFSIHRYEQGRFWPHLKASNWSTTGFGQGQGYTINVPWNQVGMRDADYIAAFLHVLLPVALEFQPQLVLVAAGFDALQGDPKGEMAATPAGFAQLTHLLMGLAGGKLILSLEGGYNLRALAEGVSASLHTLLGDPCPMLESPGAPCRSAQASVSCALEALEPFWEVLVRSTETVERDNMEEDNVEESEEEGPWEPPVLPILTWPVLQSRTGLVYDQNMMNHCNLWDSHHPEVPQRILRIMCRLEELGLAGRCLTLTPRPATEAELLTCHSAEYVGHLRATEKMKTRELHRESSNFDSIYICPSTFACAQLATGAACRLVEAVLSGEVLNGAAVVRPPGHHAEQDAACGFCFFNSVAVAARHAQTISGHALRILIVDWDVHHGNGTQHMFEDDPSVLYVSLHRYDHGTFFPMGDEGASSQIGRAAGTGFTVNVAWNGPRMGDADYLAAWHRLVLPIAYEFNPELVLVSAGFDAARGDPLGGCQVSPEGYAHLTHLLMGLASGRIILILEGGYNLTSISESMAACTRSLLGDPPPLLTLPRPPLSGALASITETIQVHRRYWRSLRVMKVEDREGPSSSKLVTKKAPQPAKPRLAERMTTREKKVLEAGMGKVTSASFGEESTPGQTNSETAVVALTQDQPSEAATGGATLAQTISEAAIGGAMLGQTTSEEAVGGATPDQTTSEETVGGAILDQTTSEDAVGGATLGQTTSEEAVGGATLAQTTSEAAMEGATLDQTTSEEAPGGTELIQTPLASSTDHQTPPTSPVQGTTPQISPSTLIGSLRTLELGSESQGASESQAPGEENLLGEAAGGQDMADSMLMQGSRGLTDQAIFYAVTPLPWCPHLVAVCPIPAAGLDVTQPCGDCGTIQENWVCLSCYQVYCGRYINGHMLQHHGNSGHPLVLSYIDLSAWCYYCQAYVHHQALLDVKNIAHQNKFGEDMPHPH
# HDAC1 = HDAC1 (Homo sapiens, UniProt Q13547); test: ELISA-based HDAC activity assay, HDAC1; conditions: for IC50: read-out: IC50 values (nM) HDAC1
# recombinant HDAC8 = target: T2, recombinant HDAC8 (Homo sapiens, UniProt Q9BY41); test: Recombinant HDAC8 inhibition (HDAC-Glo); type: biochemical; conditions: for activity at 0.1 µM: 1.0 × 10^−7 M; for activity at 0.2 µM: 2.0 × 10^−7 M; for activity at 0.05 µM: 5.0 × 10^−8 M; for HDAC8 fold selectivity HDAC1: HDAC8 over HDAC1; for HDAC8 fold selectivity HDAC1 / HDAC8 fold selectivity HDAC2 / HDAC8 fold selectivity HDAC3: calculated from IC50 values; for HDAC8 fold selectivity HDAC2: HDAC8 over HDAC2; for HDAC8 fold selectivity HDAC3: HDAC8 over HDAC3
# T2 construct: purchased BPS Bioscience
# T2 sequence (Q9BY41 1-377): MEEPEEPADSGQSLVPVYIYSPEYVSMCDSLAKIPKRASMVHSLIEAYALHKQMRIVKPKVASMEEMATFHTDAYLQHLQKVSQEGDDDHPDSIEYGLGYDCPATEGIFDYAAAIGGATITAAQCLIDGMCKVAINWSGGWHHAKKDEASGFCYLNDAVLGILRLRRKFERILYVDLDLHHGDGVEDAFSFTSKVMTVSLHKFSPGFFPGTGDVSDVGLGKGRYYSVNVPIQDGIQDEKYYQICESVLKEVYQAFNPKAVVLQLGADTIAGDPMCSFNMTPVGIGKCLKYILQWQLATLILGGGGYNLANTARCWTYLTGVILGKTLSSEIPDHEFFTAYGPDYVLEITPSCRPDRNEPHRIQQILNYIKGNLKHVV
# Description: Inhibitory activity with HDAC8 was measured using the following procedure. In a half area 96-well white opaque plate, recombinant HDAC8 (75 ng, BPS Bioscience) was incubated in HDAC-Glo™ buffer (39 μL) with inhibitor in DMSO (1 μL), or DMSO alone (1 μL) as a control, for 15 minutes at room temperature. HDAC-Glo™ reagent (10 μL) was added to each reaction and incubated for 30 min at room temperature. Luminescent signal was measured 30 minutes after adding the substrate reagent using a Geniosplus Fluorimeter (Tecan) at optimal gain. To determine IC50, the luminescent signal was first background corrected with the signal from a background control reaction where no HDAC8 enzyme was added.
# [2] = read-out: Deacetylase activity (%) HDAC2
# [3] = read-out: Deacetylase activity (%) HDAC3
# [4] = read-out: Deacetylase activity (%) HDAC6
# [5] = read-out: Deacetylase activity (%) HDAC1
# [6] = read-out: Deacetylase activity (%) HDAC8
# HDAC3, sequence (O15379 whole entry): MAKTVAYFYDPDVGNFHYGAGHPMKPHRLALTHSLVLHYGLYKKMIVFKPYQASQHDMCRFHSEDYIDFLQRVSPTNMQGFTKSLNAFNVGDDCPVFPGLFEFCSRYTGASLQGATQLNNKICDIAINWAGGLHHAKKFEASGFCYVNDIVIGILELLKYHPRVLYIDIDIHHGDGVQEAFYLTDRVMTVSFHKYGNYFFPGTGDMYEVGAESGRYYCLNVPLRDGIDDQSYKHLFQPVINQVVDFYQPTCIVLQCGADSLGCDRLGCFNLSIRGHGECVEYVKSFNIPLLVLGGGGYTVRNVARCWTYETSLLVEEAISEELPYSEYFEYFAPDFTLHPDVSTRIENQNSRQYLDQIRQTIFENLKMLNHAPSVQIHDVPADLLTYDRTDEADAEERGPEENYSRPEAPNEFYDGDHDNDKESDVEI
# HDAC3, sequence (Q9Y618 whole entry partner): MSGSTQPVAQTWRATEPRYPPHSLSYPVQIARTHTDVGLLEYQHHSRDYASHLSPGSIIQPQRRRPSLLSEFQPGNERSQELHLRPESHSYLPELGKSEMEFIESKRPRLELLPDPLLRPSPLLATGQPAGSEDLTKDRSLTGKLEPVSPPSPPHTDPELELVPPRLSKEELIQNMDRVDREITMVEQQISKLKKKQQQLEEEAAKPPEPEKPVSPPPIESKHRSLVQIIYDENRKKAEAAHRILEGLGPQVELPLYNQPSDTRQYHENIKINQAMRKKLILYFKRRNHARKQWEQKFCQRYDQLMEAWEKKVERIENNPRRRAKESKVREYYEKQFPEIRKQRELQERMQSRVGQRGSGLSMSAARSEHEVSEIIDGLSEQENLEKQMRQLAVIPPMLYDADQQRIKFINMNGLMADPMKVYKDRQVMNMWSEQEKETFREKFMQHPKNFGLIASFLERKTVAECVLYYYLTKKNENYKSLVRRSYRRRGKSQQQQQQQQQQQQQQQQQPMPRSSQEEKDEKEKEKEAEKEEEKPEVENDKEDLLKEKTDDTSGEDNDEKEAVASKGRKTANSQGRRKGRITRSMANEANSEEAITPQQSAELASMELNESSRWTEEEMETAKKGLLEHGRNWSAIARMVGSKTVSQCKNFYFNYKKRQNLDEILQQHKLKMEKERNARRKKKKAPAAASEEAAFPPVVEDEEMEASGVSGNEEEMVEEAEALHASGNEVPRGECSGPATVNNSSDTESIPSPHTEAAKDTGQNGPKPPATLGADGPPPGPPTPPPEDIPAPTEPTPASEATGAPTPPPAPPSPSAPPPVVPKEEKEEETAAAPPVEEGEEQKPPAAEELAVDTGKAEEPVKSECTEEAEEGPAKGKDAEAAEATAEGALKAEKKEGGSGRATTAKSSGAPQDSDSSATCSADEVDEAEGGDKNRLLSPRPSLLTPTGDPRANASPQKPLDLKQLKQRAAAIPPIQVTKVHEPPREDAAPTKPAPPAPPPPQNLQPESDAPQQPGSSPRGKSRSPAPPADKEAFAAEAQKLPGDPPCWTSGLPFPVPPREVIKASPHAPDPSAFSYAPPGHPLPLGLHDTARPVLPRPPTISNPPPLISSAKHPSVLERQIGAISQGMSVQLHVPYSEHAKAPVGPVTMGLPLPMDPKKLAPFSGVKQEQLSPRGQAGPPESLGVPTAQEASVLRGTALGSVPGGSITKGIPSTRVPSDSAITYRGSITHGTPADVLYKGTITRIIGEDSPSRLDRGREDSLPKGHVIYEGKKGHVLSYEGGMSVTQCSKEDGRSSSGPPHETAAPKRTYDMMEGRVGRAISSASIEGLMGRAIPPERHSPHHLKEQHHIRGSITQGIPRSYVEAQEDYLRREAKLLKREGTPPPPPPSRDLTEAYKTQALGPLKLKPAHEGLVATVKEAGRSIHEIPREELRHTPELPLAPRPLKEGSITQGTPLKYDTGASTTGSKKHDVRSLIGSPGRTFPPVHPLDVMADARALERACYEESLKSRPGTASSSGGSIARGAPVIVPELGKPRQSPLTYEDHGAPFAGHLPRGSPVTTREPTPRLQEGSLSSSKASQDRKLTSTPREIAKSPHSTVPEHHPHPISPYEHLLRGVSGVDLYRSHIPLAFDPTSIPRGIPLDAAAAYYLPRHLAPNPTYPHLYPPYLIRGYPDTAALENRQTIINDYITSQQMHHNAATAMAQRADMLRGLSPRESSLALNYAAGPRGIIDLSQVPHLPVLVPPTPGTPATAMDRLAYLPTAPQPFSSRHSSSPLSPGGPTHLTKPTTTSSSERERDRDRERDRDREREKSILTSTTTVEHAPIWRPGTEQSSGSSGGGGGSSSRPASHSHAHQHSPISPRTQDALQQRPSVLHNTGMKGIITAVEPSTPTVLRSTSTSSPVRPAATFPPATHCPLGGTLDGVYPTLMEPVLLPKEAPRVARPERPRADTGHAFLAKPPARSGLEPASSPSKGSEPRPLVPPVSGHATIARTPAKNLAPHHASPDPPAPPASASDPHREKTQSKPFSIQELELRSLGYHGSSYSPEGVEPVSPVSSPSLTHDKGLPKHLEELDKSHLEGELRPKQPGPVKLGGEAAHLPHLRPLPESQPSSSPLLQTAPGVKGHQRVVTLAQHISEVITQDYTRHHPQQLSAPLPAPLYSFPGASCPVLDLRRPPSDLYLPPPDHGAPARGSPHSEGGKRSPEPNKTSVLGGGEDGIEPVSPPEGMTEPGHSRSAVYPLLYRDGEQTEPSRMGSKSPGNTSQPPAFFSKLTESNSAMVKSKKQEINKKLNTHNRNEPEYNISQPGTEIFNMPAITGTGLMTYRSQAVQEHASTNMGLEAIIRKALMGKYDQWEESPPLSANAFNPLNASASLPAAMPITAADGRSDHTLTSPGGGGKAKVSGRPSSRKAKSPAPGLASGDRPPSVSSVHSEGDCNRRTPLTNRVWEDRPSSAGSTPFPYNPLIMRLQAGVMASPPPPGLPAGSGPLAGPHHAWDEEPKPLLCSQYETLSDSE
# HDAC2, sequence (Q92769 whole entry): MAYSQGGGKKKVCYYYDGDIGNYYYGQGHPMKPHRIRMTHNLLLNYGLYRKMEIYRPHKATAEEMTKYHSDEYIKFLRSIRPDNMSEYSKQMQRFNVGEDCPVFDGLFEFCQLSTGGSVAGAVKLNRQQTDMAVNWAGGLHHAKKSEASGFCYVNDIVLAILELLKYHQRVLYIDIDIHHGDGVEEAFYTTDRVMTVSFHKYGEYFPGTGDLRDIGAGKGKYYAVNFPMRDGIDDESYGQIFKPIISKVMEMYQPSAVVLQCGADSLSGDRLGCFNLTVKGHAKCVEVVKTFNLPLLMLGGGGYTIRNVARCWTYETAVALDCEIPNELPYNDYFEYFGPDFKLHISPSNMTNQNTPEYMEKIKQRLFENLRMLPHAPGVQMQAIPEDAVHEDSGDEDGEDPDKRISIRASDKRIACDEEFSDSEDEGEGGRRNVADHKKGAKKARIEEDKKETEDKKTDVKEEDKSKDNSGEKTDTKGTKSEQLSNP
# HDAC1, sequence (Q13547 whole entry): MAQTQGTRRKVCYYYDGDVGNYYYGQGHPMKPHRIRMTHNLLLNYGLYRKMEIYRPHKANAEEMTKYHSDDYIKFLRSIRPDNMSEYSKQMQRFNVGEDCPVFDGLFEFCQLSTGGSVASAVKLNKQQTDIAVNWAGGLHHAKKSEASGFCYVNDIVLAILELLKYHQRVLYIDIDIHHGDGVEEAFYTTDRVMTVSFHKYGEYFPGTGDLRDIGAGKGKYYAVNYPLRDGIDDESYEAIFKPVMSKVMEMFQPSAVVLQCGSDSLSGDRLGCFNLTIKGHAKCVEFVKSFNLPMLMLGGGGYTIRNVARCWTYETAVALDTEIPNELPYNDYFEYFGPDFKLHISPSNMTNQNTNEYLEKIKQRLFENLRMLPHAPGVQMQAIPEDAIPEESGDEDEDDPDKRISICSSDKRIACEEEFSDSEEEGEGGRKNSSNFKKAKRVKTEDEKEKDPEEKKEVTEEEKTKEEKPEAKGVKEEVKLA
structure (smiles),measurement,setting,value
"CC(CCCC(=O)Nc1ccccc1)CCC(=O)NO (racemic) [Compound 1a, N^1-hydroxy-4-methyl-N^8-phenyloctanediamide]",Deacetylase activity (%),[1]; 1.0 × 10^−5 M,17 ± 2%
same,Deacetylase activity (%),[1]; 1.25 × 10^−6 M,79 ± 3%
same,Deacetylase activity (%),[1]; 5.0 × 10^−6 M,38 ± 4%
same,Deacetylase activity (%),[1]; 6.25 × 10^−6 M,91 ± 2%
same,IC50,[1]; HeLa cell lysates,3.3 µM
same,fold less potent than SAHA,"[1]; HeLa cell lysates, compared to parent SAHA",18 fold
same,Deacetylase activity (%),[1]; […] 10^−6 M,60 ± 3%
"CCCCCCC(CCCC(=O)Nc1ccccc1)CCC(=O)NO (single isomer, unassigned) [Compound 1e, 4-hexyl-N^1-hydroxy-N^8-phenyloctanediamide]",Deacetylase activity (%),[1]; 1.0 × 10^−4 M,32 ± 1%
same,Deacetylase activity (%),[1]; 1.25 × 10^−5 M,104 ± 1%
same,Deacetylase activity (%),[1]; 2.0 × 10^−4 M,15 ± 1%
same,Deacetylase activity (%),[1]; 5.0 × 10^−5 M,57 ± 2%
same,IC50,[1]; HeLa cell lysates,65 ± 6 µM
same,Deacetylase activity (%),[1]; […] 10^−5 M,88 ± 1%
"O=C(CC[C@@H](CCCC(=O)Nc1ccccc1)Cc1ccccc1)NO [(R)-1f, (R)-4-benzyl-N^1-hydroxy-N^8-phenyloctanediamide]",activity at 5 µM,HDAC2; [2],96 ± 1%
same,activity at 10 µM,HDAC2; [2],83 ± 5%
same,activity at 20 µM,HDAC2; [2],71 ± 4%
same,activity at 40 µM,HDAC2; [2],43 ± 5%
same,activity at 80 µM,HDAC2; [2],29 ± 1%
same,IC50,HDAC2,36000 nM
same,activity at 5 µM,HDAC3; [3],89 ± 2%
same,activity at 10 µM,HDAC3; [3],77 ± 2%
same,activity at 20 µM,HDAC3; [3],54 ± 4%
same,activity at 40 µM,HDAC3; [3],39 ± 2%
same,activity at 80 µM,HDAC3; [3],25 ± 2%
same,IC50,HDAC3,27000 nM
same,HDAC6 fold selectivity HDAC1,HDAC6,420 fold
same,HDAC6 fold selectivity HDAC2,HDAC6,540 fold
same,HDAC6 fold selectivity HDAC3,HDAC6,390 fold
same,activity at 0.0125 µM,HDAC6; [4],67 ± 4%
same,activity at 0.05 µM,HDAC6; [4],57 ± 5%
same,activity at 0.1 µM,HDAC6; [4],37 ± 6%
same,activity at 0.2 µM,HDAC6; [4],26 ± 4%
same,activity at […],HDAC6; [4],59 ± 8%
same,IC50,HDAC6,48 nM
same,activity at 5 µM,HDAC1; [5],88 ± 4%
same,activity at 10 µM,HDAC1; [5],72 ± 3%
same,activity at 20 µM,HDAC1; [5],53 ± 6%
same,activity at 40 µM,HDAC1; [5],38 ± 3%
same,activity at 80 µM,HDAC1; [5],24 ± 2%
same,IC50,HDAC1,25000 nM
same,IC50,recombinant HDAC8,27 nM
same,activity at 0.1 µM,recombinant HDAC8; [6],22 ± 1%
same,activity at 0.0125 µM,"recombinant HDAC8; 1.25 × 10^−8 M, read-out: Deacetylase activity (%) HDAC8",64 ± 2%
same,activity at 0.2 µM,recombinant HDAC8; [6],16 ± 1%
same,activity at […],"recombinant HDAC8; 2.5 × 10^−8 M, read-out: Deacetylase activity (%) HDAC8",56 ± 4%
same,activity at 0.05 µM,recombinant HDAC8; [6],37 ± 3%
same,HDAC8 fold selectivity HDAC1,recombinant HDAC8,260 fold
same,HDAC8 fold selectivity HDAC2,recombinant HDAC8,330 fold
same,HDAC8 fold selectivity HDAC3,recombinant HDAC8,240 fold
"O=C(CC[C@H](CCCC(=O)Nc1ccccc1)Cc1ccccc1)NO [(S)-1f, (S)-4-benzyl-N^1-hydroxy-N^8-phenyloctanediamide]",activity at 10 µM,HDAC2; [2],87 ± 5%
same,activity at 20 µM,HDAC2; [2],74 ± 3%
same,activity at 40 µM,HDAC2; [2],56 ± 3%
same,activity at 80 µM,HDAC2; [2],37 ± 6%
same,activity at 160 µM,HDAC2; [2],22 ± 2%
same,IC50,HDAC2,51000 nM
same,activity at 10 µM,HDAC3; [3],76 ± 5%
same,activity at 20 µM,HDAC3; [3],67 ± 4%
same,activity at 40 µM,HDAC3; [3],48 ± 2%
same,activity at 80 µM,HDAC3; [3],33 ± 4%
same,activity at 160 µM,HDAC3; [3],15 ± 2%
same,IC50,HDAC3,37000 nM
same,HDAC6 fold selectivity HDAC1,HDAC6,520 fold
same,HDAC6 fold selectivity HDAC2,HDAC6,750 fold
same,HDAC6 fold selectivity HDAC3,HDAC6,560 fold
same,activity at 0.05 µM,HDAC6; [4],64 ± 4%
same,activity at 0.1 µM,HDAC6; [4],48 ± 7%
same,activity at 0.2 µM,HDAC6; [4],37 ± 7%
same,activity at 0.4 µM,HDAC6; [4],17 ± 6%
same,activity at 0.8 µM,HDAC6; [4],16 ± 6%
same,IC50,HDAC6,95 ± 9 nM
same,activity at 10 µM,HDAC1; [5],84 ± 7%
same,activity at 20 µM,HDAC1; [5],68 ± 3%
same,activity at 40 µM,HDAC1; [5],50 ± 3%
same,activity at 80 µM,HDAC1; [5],32 ± 2%
same,activity at 160 µM,HDAC1; [5],17 ± 1%
same,IC50,HDAC1,40000 nM
same,IC50,recombinant HDAC8,150 nM
same,activity at 0.1 µM,recombinant HDAC8; [6],61 ± 3%
same,activity at 0.2 µM,recombinant HDAC8; [6],42 ± 2%
same,activity at 0.4 µM,"recombinant HDAC8; 4.0 × 10^−7 M, read-out: Deacetylase activity (%) HDAC8",28 ± 1%
same,activity at 0.05 µM,recombinant HDAC8; [6],75 ± 6%
same,activity at 0.8 µM,"recombinant HDAC8; 8.0 × 10^−7 M, read-out: Deacetylase activity (%) HDAC8",19 ± 1%
same,HDAC8 fold selectivity HDAC1,recombinant HDAC8,930 fold
same,HDAC8 fold selectivity HDAC2,recombinant HDAC8,1300 fold
same,HDAC8 fold selectivity HDAC3,recombinant HDAC8,1000 fold
